Data taken from patent US20150140123A1, “Protein expression analyses for identifying genotoxic compounds” (Merck Patent GmbH, priority 2012, published 2015).
Read-outs that look alike come from different tables or passages of the source.

Tested on: HepG2 cells
Assay: High content imaging cytotoxicity parameters: selected cell count per valid field (SCC) and CMFDA cytoplasm average intensity
Protocol: HepG2 cells (Order No. HB-8065, Lot. 58483209, ATCC, Manassas, USA) were cultured in DMEM/F12 with L-Glutamine and 15 mM Hepes supplemented with 10% (v/v) FBS, 1% (v/v) penicillin (10 kU/ml)/streptomycin (10 mg/ml) solution, 0.1% (v/v) gentamicin (50 mg/ml), and 1 mM sodium pyruvate at 37° C. and 5% CO2 in culture flasks. Depending on the experiment, an appropriate number of cells were seeded onto plates after detaching of the cells using trypsin and cells were cultured at 37° C. and 5% CO2 for 24 h prior to treatment. All experiments were performed three times with cells of passages 4-20.
Cells were seeded onto black Poly-D-Lysin coated 96-well-plates (BD Biocoat, Franklin Lakes, USA) (0.02×10^6 cells/well) and left 24 h for adherence and then treated with test compounds at a maximum concentration of 1 mM which is recommended by the ICH S2(R1) guideline (EMA, 2011). For each compound, nine concentrations were tested with 2-fold serial dilutions. DMSO 1% (v/v) served as vehicle control for the experiments. The treatment procedure was different for direct-genotoxic and pro-genotoxic compounds. The treatment for direct genotoxic compounds was ongoing and was repeated daily over 48 h. Pro-genotoxic compounds were incubated for 6 h together with metabolic activation system (to limit the cytotoxic effect of the S9-mixture). After this period, cells were washed with cell media followed by 18-repeated daily over 48 h. The metabolic activation system used consisted of the following components and concentrations: 8 mM MgCl2, 32.8 mM KCl, 12 mM NADPH, 124 mM phosphate buffer and 2500 pmol/ml cytochrome P450 (CYP) content in the pre-mixture corresponding to 2.4 mM MgCl2, 9.8 mM KCl, 3.6 mM NADPH, 37.2 mM phosphate buffer, and 750 pmol/ml CYP as final concentrations after dilution 1:3.33 with cell culture media.
After treatment, cells were rinsed with PBS (Gibco Invitrogen, Karlsruhe, Germany), and then stained with 10 μM CellTracker Green 5-Chloromethylfluorescein Diacetate (CMFDA) (Invitrogen, Karlsruhe, Germany) in cell culture media for 30 min. CMFDA is per se non-fluorescent and is hydrolyzed by esterase in viable cells to a fluorescent-dye. The reaction with thiol groups leads to a cell-impermeable fluorescent-dye-adduct. The esterase activity can be used as an indicator for viability of cells (Papadopoulos et al., 1994, J Immunol Methods 177, 101-11). Afterwards, cells were washed with PBS and fixed with 3.7% Formaldehyde (Sigma-Aldrich, Taufkirchen, Germany) in PBS for 20 min. After that, cells were washed with PBS and blocked and permeabilized with 2% donkey serum (Millipore, Schwalbach, Germany) and 0.25% Triton X-100 (Sigma-Aldrich, Taufkirchen, Germany) in PBS for 30 min. Primary antibodies were diluted in Blocking/Permeabilization solution to final concentrations of 4 μg/ml anti-p-Chk1 (Ser345) goat polyclonal antibody IgG (santa cruz, Santa Cruz, USA), 4 μg/ml anti-p-ATM (Ser1981) mouse monoclonal antibody IgG1K (Millipore, Schwalbach, Germany) and added to the cells. After incubation for 16-18 h, cells were washed with 0.05% Tween 20 (Calbiochem, Darmstadt, Germany) in PBS, and the secondary antibody/16 μM Hoechst staining solution Blocking/Permeabilization solution was added. Secondary antibodies were diluted 1:400 (Alexa Fluor 555 donkey anti-goat, Alexa Fluor 647 donkey anti-mouse, Invitrogen, Karlsruhe, Germany). After an incubation of 1 h, followed by two additional washing steps with 0.05% Tween 20, cells were washed with PBS and finally PBS was added and cells were measured.
Image acquisition was performed on the ArrayScan VTI HCS Reader (Cellomics, Pittsburgh, USA) using a 20× objective. To detect enough cells, 50 images starting at the middle of each well were gathered.
• Channel 1: selected cell count per valid field • Channel 2: CMFDA cytoplasm average intensity • Channel 3: p-Chk1 (Ser345) nucleus average intensity • Channel 4: p-ATM (Ser1981) nucleus average intensity

[1] = HepG2 cells, 48 h, CMFDA cytoplasm average intensity, with rat liver S9 (+S9)
[2] = HepG2 cells, 48 h, CMFDA cytoplasm average intensity, without metabolic activation (−S9)
[3] = HepG2 cells, 48 h, selected cell count per valid field, with rat liver S9 (+S9)
[4] = HepG2 cells, 48 h, selected cell count per valid field, without metabolic activation (−S9)

In the case of CC(C)[C@@H]1CC[C@@H](C)C[C@H]1O [D,L-menthol], the “CMFDA +S9 highest conc. <50% cytotox. over control” value is reported as 1000 µM, the “CMFDA −S9 highest conc. <50% cytotox. over control” value is reported as 1000 µM and the “SCC +S9 highest conc. <50% cytotox. over control” value is reported as 1000 µM. For the same compound, the “SCC −S9 highest conc. <50% cytotox. over control” value was 1000 µM.
With OC[C@@H](O)[C@@H](O)[C@H](O)[C@H](O)CO [D-mannitol] the “CMFDA +S9 highest conc. <50% cytotox. over control” value (human, 48 h) was 1000 µM, the “CMFDA −S9 highest conc. <50% cytotox. over control” value (human, 48 h) was 1000 µM and the “SCC +S9 highest conc. <50% cytotox. over control” value (human, 48 h) was 1000 µM. The “SCC −S9 highest conc. <50% cytotox. over control” value (human, 48 h) was 1000 µM.
With CCCCC(CC)COC(=O)c1ccccc1C(=O)OCC(CC)CCCC (centres unmarked) [Di-(2-ethylhexyl)phthalate] the “CMFDA +S9 highest conc. <50% cytotox. over control” value (human) was 1000 µM, the “CMFDA −S9 highest conc. <50% cytotox. over control” value (human) was 1000 µM and the “SCC +S9 highest conc. <50% cytotox. over control” value (human) was 1000 µM. The “SCC −S9 highest conc. <50% cytotox. over control” value (human) was 1000 µM.
OCCNCCO [Diethanolamine] was tested, and the “CMFDA +S9 highest conc. <50% cytotox. over control” value (human, 48 h) was 1000 µM, the “CMFDA −S9 highest conc. <50% cytotox. over control” value (human, 48 h) was 1000 µM and the “SCC +S9 highest conc. <50% cytotox. over control” value (human, 48 h) was 1000 µM. For the same compound, the “SCC −S9 highest conc. <50% cytotox. over control” value (human, 48 h) was 1000 µM.
CC[C@H]1OC(=O)[C@H](C)[C@@H](O[C@H]2C[C@@](C)(OC)[C@@H](O)[C@H](C)O2)[C@H](C)[C@@H](O[C@@H]2O[C@H](C)C[C@H](N(C)C)[C@H]2O)[C@](C)(O)C[C@@H](C)C(=O)[C@H](C)[C@@H](O)[C@]1(C)O [Erythromycin stearate] was tested, and the “CMFDA −S9 highest conc. <50% cytotox. over control” value (human, 48 h) was 62.5 µM and the “SCC −S9 highest conc. <50% cytotox. over control” value (human, 48 h) was 31.25 µM.
For CCc1cc(C(N)=S)ccn1 [Ethionamide], the “CMFDA +S9 highest conc. <50% cytotox. over control” value (human, 48 h) was 1000 µM, the “CMFDA −S9 highest conc. <50% cytotox. over control” value (human, 48 h) was 1000 µM and the “SCC +S9 highest conc. <50% cytotox. over control” value (human, 48 h) was 1000 µM. For the same compound, the “SCC −S9 highest conc. <50% cytotox. over control” value (human, 48 h) was 1000 µM.
In the case of C=CC(=O)OCC [Ethyl acrylate], the “CMFDA +S9 highest conc. <50% cytotox. over control” value (human) is reported as 1000 µM, the “CMFDA −S9 highest conc. <50% cytotox. over control” value (human) is reported as 1000 µM and the “SCC +S9 highest conc. <50% cytotox. over control” value (human) is reported as 1000 µM. The “SCC −S9 highest conc. <50% cytotox. over control” value (human) was 1000 µM.
For COc1cc([C@@H]2c3cc4c(cc3[C@@H](O[C@@H]3O[C@@H]5CO[C@@H](C)O[C@H]5[C@H](O)[C@H]3O)[C@H]3COC(=O)[C@H]23)OCO4)cc(OC)c1O [Etoposide], the “CMFDA +S9 highest conc. <50% cytotox. over control” value (human, 48 h) was 1000 µM, the “CMFDA −S9 highest conc. <50% cytotox. over control” value (human, 48 h) was 1000 µM and the “SCC +S9 highest conc. <50% cytotox. over control” value (human, 48 h) was 1000 µM.
In the case of CN(C)C(=O)Nc1cccc(C(F)(F)F)c1 [Fluometron], the “CMFDA +S9 highest conc. <50% cytotox. over control” value (human, 48 h) is reported as 1000 µM, the “CMFDA −S9 highest conc. <50% cytotox. over control” value (human, 48 h) is reported as 1000 µM and the “SCC +S9 highest conc. <50% cytotox. over control” value (human, 48 h) is reported as 1000 µM. The “SCC −S9 highest conc. <50% cytotox. over control” value (human, 48 h) was 500 µM.
For ClC(Cl)(Cl)C(Cl)(Cl)Cl [Hexachloroethane], the “CMFDA +S9 highest conc. <50% cytotox. over control” value [1] was 1000 µM, the “CMFDA −S9 highest conc. <50% cytotox. over control” value [2] was 1000 µM and the “SCC +S9 highest conc. <50% cytotox. over control” value [3] was 1000 µM. The “SCC −S9 highest conc. <50% cytotox. over control” value [4] was 1000 µM.
Oc1ccc(O)cc1 [Hydroquinone] was tested, and the “CMFDA +S9 highest conc. <50% cytotox. over control” value (human, 48 h) was 1000 µM, the “CMFDA −S9 highest conc. <50% cytotox. over control” value (human, 48 h) was 250 µM and the “SCC +S9 highest conc. <50% cytotox. over control” value (human, 48 h) was 1000 µM. For the same compound, the “SCC −S9 highest conc. <50% cytotox. over control” value (human, 48 h) was 250 µM.
In the case of Cn1c(N)nc2c3cccnc3ccc21 [IQ, 2-Amino-3methylimidazo[4,5-f]quinoline], the “CMFDA +S9 highest conc. <50% cytotox. over control” value [1] is reported as 125 µM, the “CMFDA −S9 highest conc. <50% cytotox. over control” value [2] is reported as 1000 µM and the “SCC +S9 highest conc. <50% cytotox. over control” value [3] is reported as 125 µM. The “SCC −S9 highest conc. <50% cytotox. over control” value [4] was 1000 µM.
With CC(C)C=O [Isobutyraldehyde] the “CMFDA +S9 highest conc. <50% cytotox. over control” value (human, 48 h) was 1000 µM, the “CMFDA −S9 highest conc. <50% cytotox. over control” value (human, 48 h) was 1000 µM and the “SCC +S9 highest conc. <50% cytotox. over control” value (human, 48 h) was 1000 µM. For the same compound, the “SCC −S9 highest conc. <50% cytotox. over control” value (human, 48 h) was 1000 µM.
Nc1nc(N)nc(N)n1 [Melamine] was tested, and the “CMFDA +S9 highest conc. <50% cytotox. over control” value [1] was 1000 µM, the “CMFDA −S9 highest conc. <50% cytotox. over control” value [2] was 1000 µM and the “SCC +S9 highest conc. <50% cytotox. over control” value [3] was 1000 µM. The “SCC −S9 highest conc. <50% cytotox. over control” value [4] was 1000 µM.
